Measurements from PMC5007854, “β-Nitrostyrenes as Potential Anti-leishmanial Agents” (Frontiers in Microbiology, 2016).
Like-named read-outs stand apart in the source and are kept apart here.

Legend:
[1] = system: murine macrophage cell line RAW264.7; experiment: Ex vivo cytotoxicity assay (MTT); format: cell-based; conditions: increasing concentrations, 48 h, 37°C (Figure 6)
Method: Murine macrophage cell line, RAW264.7 was grown at 37°C in medium RPMI-1640 (pH 7.4, Sigma-Aldrich, St. Louis, MO, USA) supplemented with 10% heat-inactivated FBS for 48 to 72 h in a humidified atmosphere of 5% CO2 and sub-cultured in fresh RPMI-1640 medium at an average density 2 × 10^5 cells/ml (Islamuddin et al., [2014b]).
To evaluate the adverse toxicity of test compounds (9, 12, 14, and 18) on mammalian cells, the murine macrophage cell line (RAW264.7) cultured in RPMI 1640 medium were exposed to increasing concentrations of test compounds (5–50 μM) at 37°C, 5% CO2 for 48 h. AmB as the reference drug, and macrophages without any treatment were taken as control. The percentage of cell viability was evaluated by MTT (3-{4, 5-dimethylthiazol-2-yl}-2, 5-diphenyltetrazoliumbromide) assay (Das et al., [2008]).

[2] = system: L. donovani intracellular amastigotes; experiment: Anti-amastigote activity in ex vivo macrophage model; format: cell-based, Leishmania donovani; conditions: 48 h; for Clearance of intracellular amastigotes in Giemsa-stained micrographs: 1.56 μM; for IC50: Leishmania donovani, Peritoneal macrophage, in Mus musculus, read-out: L. donovani amastigotes IC50 ± SEM
Text: BALB/c mice was used for the isolation of peritoneal macrophages in the ex vivo anti-amastigote study after prior approval from the Jamia Hamdard Animal Ethics Committee (JHAEC). JHAEC is registered under the Committee for the purpose of supervision and control of experiments on animals (CPCSEA). Mice were individually housed in the Central Animal House of Jamia Hamdard as per internationally accepted norms. The mice were kept in standard size polycarbonate cages under controlled conditions of temperature (23 ± 1°C), humidity (55 ± 10%), 12:12 h of light and dark cycle and fed with standard pellet diet and filtered water (ad libitum).
Macrophages from the peritonial cavity of BALB/c mice (1 × 10^6 cellsml^−1) were allowed to adhere to round glass coverslips in a 24 well tissue culture plate and incubated for 12 h at 37°C in a CO2 incubator. After removal of the non-adherent macrophages, the cells were infected with stationary phase promastigotes using a cell to parasite ratio of 1:10 and incubated at 37°C for 24 h. The non-phagocytosed parasites were removed by washing, and the infected macrophages incubated with the test compounds 9, 12, 14, and 18 (0–25 μM) for an additional 48 h. The coverslips were fixed in methanol and giemsa-stained for microscopic evaluation (100X) of amastigote infectivity. Number of amastigotes per 100 macrophages were enumerated and the concentration that decreased amastigotes by 50% (IC50) was determined (Wong et al., [2012]; Islamuddin et al., [2014a]).
(§1) In vitro antileishmanial activity was expressed as IC50 by linear regression analysis. Values are mean ± SE of samples in triplicate from at least three independent experiments. Statistical analysis was performed using ANOVA followed by Dunnett's test. ^*P < 0.05, ^**P < 0.01 and ^***P < 0.001 compared with the untreated control group were considered significant.

[3] = system: L. donovani promastigotes; experiment: Dose-dependent anti-promastigote activity, IC50 and IC90; format: cell-based, Leishmania donovani; conditions: Leishmania donovani, 72 h; for IC50: read-out: L. donovani promastigotes IC50 ± SEM; for IC90: read-out: L. donovani promastigotes IC90 ± SEM
Method: L. donovani parasites (MHOM/IN/83/AG83) were maintained in vivo in BALB/c mice. Promastigotes were routinely cultured at 22°C in medium M199 supplemented with 10% heat inactivated fetal bovine serum (FBS, HiMedia Laboratories, Mumbai, India), penicillin 100 (IU/ml), streptomycin (100 μg/ml). Log phase promastigotes were sub-cultured every 72–96 h, the inoculum being 2 × 10^6 cells/ml (Afrin et al., [2002]).
AmB was used as a standard antileishmanial drug control. The cell viability was evaluated by microscopically and the mean percentage viability was calculated as follows: Mean cell number of treated parasites / Mean cell number of untreated parasites × 100. The 50 and 90% inhibitory concentration (IC50 and IC90) i.e., the concentration of drugs that decreased the cell growth by 50 and 90% respectively was determined by graphical extrapolation after plotting the graph of % viability vs. concentration of drug (Islamuddin et al., [2014b]).
as §1

[4] = system: nitric oxide production in L. donovani infected peritoneal macrophages; experiment: Nitrite (NO) production by Griess reaction in infected macrophages; format: cell-based, BALB/c mice; conditions: 48 h; for NO levels, in words: 0–25 μM; for NO production (nitrite): compound at 25 μM
Method: The supernatant from control L. donovani infected and treated macrophages were analyzed for nitrite content by the Griess reaction. In brief, equal volume of Griess reagent [1%sulphanilamide and 0.1% N-(1-naphthyl) ethylenediaminedihydrochloride in 5% phosphoric acid] was added to the culture supernatant and the plates were incubated for 10 min at room temperature using sodium nitrite as a standard. The absorbance at 550 nm was measured and the concentration of nitrite was calculated by a linear regression analyzing the standard curve generated with sodium nitrite (Varela et al., [2012]).

[5] = system: L. donovani promastigotes; experiment: Promastigote cellular morphology by phase-contrast microscopy; format: cell-based, Leishmania donovani; conditions: 1 μM, 72 h
Method: Changes in the cellular morphology of Leishmania parasites as a result of compounds 9, 12, 14, and 18 treatment was observed microscopically. Briefly, the promastigotes (2 × 10^6 cells/mL) were incubated in the absence or presence of compounds and AmB for 72 h at a concentration of 1 μM and observed under 40 × objective of a phase-contrast microscope. […] Data were recorded by using NIS-Elements imaging software (Paris et al., [2004]).

[6] = intracellular amastigotes in BALB/c peritoneal macrophages
[7] = 22°C, mean from three determinations

SMILES	Adverse toxicity on macrophage cell line RAW264.7 [1]	Clearance of intracellular amastigotes in Giemsa-stained micrographs [2]	IC50 [2]	IC50 [3]	IC90 [3]	NO levels, in words [4]	NO production (nitrite) [4]	Cellular morphological alterations of promastigotes [5]	IC50 [2, 6]	IC50 [3, 7]	IC90 [3, 7]
CC/C(=C\c1ccc([N+](=O)[O-])cc1)[N+](=O)[O-] [Compound 9, 1-nitro-4-((E)-2-nitrobut-1-enyl) benzene]	Absence of adverse toxicity	almost total clearance	30.5 ± 3.42 nM	23.4 ± 0.71 nM	90.2 ± 1.11 nM	moderately increased	8.05 µM	altered to an ovoid shape with cell shrinkage, loss of flagella, cytoplasmic condensation	–	–	–
CC/C(=C\c1cccc([N+](=O)[O-])c1)[N+](=O)[O-] [Compound 12, 1-nitro-3-((E)-2-nitrobut-1-enyl) benzene]	Absence of adverse toxicity	almost total clearance	21.5 ± 0.96 nM	37.8 ± 3.74 nM	86.46 ± 0.21 nM	moderately increased	7.89 µM	altered to an ovoid shape with cell shrinkage, loss of flagella, cytoplasmic condensation	–	–	–
COc1ccc(/C=C(\C)[N+](=O)[O-])cc1 [Compound 14, 1-methoxy-4-((E)-2-nitroprop-1-enyl) benzene]	Absence of adverse toxicity	almost total clearance	–	–	–	mildly induced	5.89 µM	altered to an ovoid shape with cell shrinkage, loss of flagella, cytoplasmic condensation	26.4 ± 2.71 nM	40.5 ± 1.47 nM	89 ± 0.52 nM
CC/C(=C\c1ccc(O)cc1)[N+](=O)[O-] [Compound 18, 4-((E)-2-nitrobut-1-enyl) phenol]	Absence of adverse toxicity	almost total clearance	–	–	–	–	3.22 µM	altered to an ovoid shape with cell shrinkage, loss of flagella, cytoplasmic condensation	61.6 ± 8.02 nM	55.7 ± 2.84 nM	320 ± 3.65 nM
